In patent US12350473B2 (priority 2018, dated 2025):
Like-named read-outs stand apart in the source and are kept apart here.

Legend:
[1] = in vivo; cited from earlier work
[2] = in vivo, cited from earlier work
[3] = system: quadriceps femoris muscle injection site; assay: Example 13: GLP local tolerance study of naloxone following intramuscular injection; assay type: in vivo, New Zealand White Rabbits; conditions: for injection site findings: 7-day observation
Procedure: Mortality and clinical observations were recorded twice daily. […] On Day 8, the animals were euthanized and subject to a necropsy examination. A full tissue list was preserved, but only the test site and contralateral site in the other quadriceps femoris were processed for histopathological evaluation.

[4] = system: respiratory depression; conditions: IV morphine […] reversed with naloxone 0.4 mg; cited from earlier work
[5] = system: buprenorphine intravenous induced respiratory depression; conditions: 5 mg and 10 mg naloxone intravenously; cited from earlier work
[6] = system: opioid overdose; assay: Examples 10-12: high dose naloxone injection in emergency room opioid overdose cases; assay type: in vivo, human
Procedure: (§1) A person is admitted to a local emergency room suffering from an opioid overdose. A high dose naloxone composition is administered by injection to the person.
as §1

[7] = system: morphine effects; conditions: cited from earlier work
[8] = in vivo; cited from earlier work; remark: listed apart in the source

For `CC(=O)Oc1ccc2c3c1O[C@H]1[C@@H](OC(C)=O)C=C[C@H]4[C@@H](C2)N(C)CC[C@@]341` [heroin], the half-life [1] is listed as 3 to 7 h.
In the case of `CN1CC[C@]23c4c5ccc(O)c4O[C@H]2[C@@H](O)C=C[C@H]3[C@H]1C5` [morphine], the analgesic onset ([2]; iv) is listed as 6 min, the duration of action ([2]; iv) is listed as 96 min and the duration of action [2] is listed as “Longer”.
For `C=CCN1CC[C@]23c4c5ccc(O)c4O[C@H]2C(=O)CC[C@@]3(O)[C@H]1C5` [naloxone], the “erythema at injection site” value ([3]; males receiving 15 mg/animal, attributed to the shaving procedure) was “low incidence of slight erythema”, the “histology: effect on the examined tissue” value ([3]; rabbits, 5 mg/0.5 mL three times (15 mg total dose), Day 8 necropsy) was “no evidence” and the injection site findings ([3]; rabbits, IM injection in 3 sites each 2 mg/0.4 mL (total 6 mg)) was “no injection site findings attributed to treatment”. The injection site findings ([3]; rabbits, IM injection in 3 sites each 5 mg/0.5 mL (total 15 mg)) was “no injection site findings attributed to treatment”, the “return to severe respiratory depression after reversal” value [4] was ≤ 30 min and the “reversal of opioid effects” value [5] was “Complete reversal”. For the same molecule, the “outcome of opioid overdose” value ([6]; Example 10: person, 5 mg in a single injection) was “recovers from the overdose event”, the “outcome of opioid overdose” value ([6]; Example 11: person, 10 mg in a single injection) was “recovers from the overdose event” and the “outcome of opioid overdose” value ([6]; Example 12: person, 20 mg in a single injection) was “recovers from the overdose event”. For the same molecule, the “reversal of morphine effects at the 30 mg dose” value ([7]; 30 mg i.m. naloxone) was “no additional reversal”, the “naloxone dose up to which reversal of the morphine effects was dose related” value ([7]; intra-muscular, 70 kg subject, morphine 18 or 30 mg/70 kg i.m.) was “up to 10 mg” and the distribution half-life [8] was 4.7 min. For the same molecule, the “elimination half-life (average)” value [8] was 1.08 h.
